Patent US20050209319A1, “Treatment of local pain” (XenoPort, Inc., priority 2004, published 2005)
Read-outs that look alike come from different tables or passages of the source.

Key:
Caco-2 cell monolayers = test: Permeability across Caco-2 cell monolayers (cultured human epithelial cell monolayer assay); assay type: in vitro ADME; conditions: for Permeability coefficient (Papp) A to B: apical to basolateral; for Permeability coefficient (Papp) A to B / Permeability coefficient (Papp) B to A: donor 100-200 μM, 1 hr at 37° C, apical pH 6.5, basolateral pH 7.4; for Permeability coefficient (Papp) B to A: basolateral to apical
Excerpt: The following comparative test was run to determine the permeability of gabapentin and a prodrug of gabapentin across a cultured monolayer of human mucosal tissue cells (intestinal epithelial cells). Intestinal epithelial cells have an apical side (i.e., the side normally facing the gut lumen) and a basolateral side (i.e., the side normally facing the patient's internal blood carrying tissues). Both the permeability of the compounds through the monolayer of cells from apical to basolateral (A to B) and basolateral to apical (B to A) were measured.
Caco-2 cells were obtained from the ATCC (Manassas, Va.) and cultured as indicated by the supplier. Caco-2 cells were seeded into 24-well transwell plates with 3 μm filters (Corning/Costar, Acton, Mass.) at a density of 500,000 cells/well and allowed to differentiate in the transwell plates for 21 days. The test compounds were dissolved into either pH 6.5 (apical MES (4-morpholineethane sulfonic acid) buffer) or pH 7.4 (basolateral HBSS (Hanks balanced salt solution) buffer) at concentrations of 100 to 200 μM and added to the appropriate chambers. Samples were removed from the receiving chambers at various times and the permeability was measured by determining the concentration of prodrug and gabapentin (produced by esterase cleavage within the epithelial cells) by LC/MS/MS (liquid chromatography/mass spectroscopy/mass spectroscopy). Apparent permeability coefficients (“Papp”) were calculated by standard methods (B. H. Stewart et al., Pharm. Res., 1995, 12, pp. 693-699). Integrity of the monolayer was confirmed by determining the permeability of 3H-inulin. If greater than 0.5% of the inulin was detected in the receiving chamber, the transwells were discarded.

[1] = Parallel artificial membrane permeability assay (PAMPA); assay type: in vitro ADME; conditions: for Passive permeability in vitro across artificial membranes (in words): PAMPA assays; for Papp at 2 h, 50 µM: PAMPA
Description: Artificial membranes were prepared by adding 4 μL of 2% (w/v) dioleoylphosphatidyl-choline in dodecane onto the hydrophobic filters ([…] polyvinylidene fluoride) on the base of the wells of a 96-well donor plate (Millipore, Bedford, Mass.). Gabapentin or a gabapentin prodrug (150 μL of 50 μM solution in 0.1 M Tris buffer, pH 6.5 or pH 7.4) was added to the donor wells in triplicate. The gabapentin prodrug used was 1-{[(α-isobutanoyloxyethoxy)carbonyl]-aminomethyl}-1-cyclohexane acetic acid. The plate was placed onto a 96-well acceptor plate (Agilent, Wilmington, Del.), in which each well contained 400 μL 0.1 M Tris, pH 7.4. Following incubation for two hours at room temperature, samples of the donor and receiver chambers were removed for analysis by LC/MS/MS. The permeability coefficient through the artificial membrane (“Pam”) was calculated using standard methods (Sugano et al., Int. J. Pharm., 2001, 228, pp. 181-188). The artificial membrane permeability coefficient, Pam, of 1-{[(α-isobutanoyloxyethoxy)carbonyl]-aminomethyl}-1-cyclohexane acetic acid was about 5 to 30 times higher than the Pam for gabapentin at the two test pH values as shown in Table 2.

[2] = injection into hindpaw of rats pretreated with 2% formalin injection; cited from earlier work

SMILES	Passive permeability in vitro through Caco-2 cell monolayers (in words) (Caco-2 cell monolayers)	Permeability coefficient (Papp) A to B (Caco-2 cell monolayers)	Permeability coefficient (Papp) B to A (Caco-2 cell monolayers)	Papp compared with the Papp for gabapentin (Caco-2 cell monolayers; from the basolateral to the apical side)	Passive permeability in vitro across artificial membranes (in words) [1]	Permeability coefficient (Pam) pH 6.5 ([1]; donor chamber pH 6.5, 50 μM, two hours at room temperature, acceptor pH 7.4)	Permeability coefficient (Pam) pH 7.4 ([1]; donor chamber pH 7.4, 50 μM, two hours at room temperature, acceptor pH 7.4)	Passive permeability in vitro through Caco-2 cell monolayers (in words) (Caco-2 cell monolayers; Caco-2)	Papp at 2 h, 50 µM ([1]; donor chamber pH 6.5, 50 μM, two hours at room temperature, acceptor pH 7.4, read-out: Permeability coefficient (Pam) pH 6.5)	Papp at 2 h, 50 µM ([1]; donor chamber pH 7.4, 50 μM, two hours at room temperature, acceptor pH 7.4, read-out: Permeability coefficient (Pam) pH 7.4)	Effect on nociceptive behavior [2]
CC(OC(=O)NCC1(CC(=O)O)CCCCC1)OC(=O)C(C)C (stereo not drawn) [1-{[(α-isobutanoyloxyethoxy)carbonyl]-aminomethyl}-1-cyclohexane acetic acid]	relatively high passive permeability	31 (cm/sec) × 10^6	5.7 (cm/sec) × 10^6	significantly higher	relatively high passive permeability	0.65 (cm/sec) × 10^6	0.095 (cm/sec) × 10^6	–	–	–	–
NCC1(CC(=O)O)CCCCC1 [Gabapentin]	–	3.2 (cm/sec) × 10^6	3.4 (cm/sec) × 10^6	–	limited passive permeability	–	–	limited passive permeability	0.02 ×10⁻⁶ cm/s	0.026 ×10⁻⁶ cm/s	significantly reduced nociceptive behavior
